Test results from patent publication US10662193B2, “Carbazole and carboline compounds for use in the diagnosis, treatment, alleviation or prevention of disorders associated with amyloid or amyloid-like proteins” (AC IMMUNE SA, priority 2014, dated 2020).

System: tau tangles/Aβ plaques on AD brain sections
Test: Assay 1: direct staining of human Alzheimer's disease brain sections (fluorescence)
Assay type: binding
Set-up: key to Direct staining of tau tangles/Aβ plaques on AD brain sections at 100 μM / Direct staining of tau tangles on AD brain sections at 100 μM / Direct staining of Aβ plaques on AD brain sections at 100 μM / Direct staining of tau tangles on AD brain sections (footnote a: at 250 μM): − (No); +++ (strong); ++ (good); + (weak)
Method: Assay 1 (Fluorescence Based Assay):
Direct Binding of Compounds of this Invention to Human Alzheimer's Disease Brain Sections and/or Displacement of RefA and Compound B
Frozen sections with a thickness of […] from the amygdala of donors diagnosed with Braak stage V-VI Alzheimer's Disease (Braak, H.; Braak, E. Acta Neuropathol., 1991, 82, 239-259), were purchased from a commercial provider (Tissue Solutions) and kept at −80° C. until use.
Direct Staining of Human Alzheimer's Disease Brain Sections
Brain sections were encircled with pap pen liquid blocker to reduce the volume of solution for the different incubations. Sections were fixed for 15 min at 4° C. with 4% paraformaldehyde and washed three times 5 minutes with PBS at room temperature. […] To reduce the auto-fluorescence of the tissue, the sections were incubated in a solution of 0.1% Sudan Black (Sigma 199664) in 70% ethanol for 15 min at room temperature in the dark, washed four times for 5 minutes with PBS, and mounted using ProLong Gold Antifade reagent (Invitrogen P36930). Sections were then analyzed on the Nikon Eclipse Ti microscope to detect staining and imaged using Nikon DS-Fi2 camera and NIS-Element AR4.13.1 software.

[1] = 100 μM compound, human AD brain sections, fluorescence, cell does not say tangles or plaques
[2] = 100 μM in 50% ethanol, 20 min, "(tangles)" beside the symbol = tangles stained

| SMILES | Direct staining of tau tangles/Aβ plaques on AD brain sections at 100 μM [1] | Direct staining of tau tangles on AD brain sections at 100 μM (100 μM compound) | Direct staining of Aβ plaques on AD brain sections at 100 μM (100 μM compound) | other results |
| --- | --- | --- | --- | --- |
| Cn1c2ccncc2c2ccc(Nc3ccc([N+](=O)[O-])c(F)c3)nc21 [Example 99] | − |  |  |  |
| COc1cc(Nc2ccc3c4c(n(C)c3n2)CCNC4=O)ccn1 [Example 181] |  | + (tangles) |  |  |
| Cn1ccc2c(c1=O)c1ccc(Nc3ccc(F)c(F)c3)nc1n2C [Example 194] | − |  |  |  |
| CN(CCF)c1cccc(Nc2ccc3c4cnccc4n(C)c3n2)c1 [Example 26] |  |  | +++ (plaques) |  |
| CN1CCc2c(c3ccc(Nc4ccc(F)nc4)nc3n2C)C1=O [Example 182] | − |  |  |  |
| Cn1c2c(c3ccc(Nc4ccc(C#N)c(OCCF)c4)nc31)C(=O)NCC2 [Example 176] | − |  |  |  |
| Cn1c2c(c3ccc(Nc4ccc(F)c(F)c4)nc31)C(=O)N(CCCN)CC2 [213 Step F] |  |  |  | Direct staining of tau tangles/Aβ plaques on AD brain sections at 100 μM [2]: − |
| Cn1c2ccncc2c2ccc(Nc3cc(CCF)ccn3)nc21 [Example 148] |  | ++ (tangles) |  |  |
| CN1CCc2c(c3ccc(Nc4cnn(CCCF)c4)nc3n2C)C1=O [Example 191] | − |  |  |  |
| Cn1c2cc[nH]c(=O)c2c2ccc(Nc3cccc(OC(F)F)c3)nc21 [Example 193] | − |  |  |  |
| CNc1cc(Nc2ccc3c4cnccc4n(C)c3n2)ccc1F [Example 42] |  |  | +++ (plaques) |  |
| Cn1c2c(c3ccc(Nc4cccc(OCCF)n4)nc31)C(=O)NCC2 [Example 210] | − |  |  |  |
| Cn1c2ccncc2c2ccc(N3CCC[C@H](F)C3)nc21 [Example 158] |  | ++ (tangles) |  |  |
| Cn1c2ccncc2c2ccc(Nc3ccc(OCCF)nc3)nc21 [Example 50] |  | + (tangles) + (plaques) | + (tangles) + (plaques) |  |
| Cn1c2ccncc2c2ccc(Nc3cccc(SCCF)c3)nc21 [Example 43] |  | + (tangles) + (plaques) | + (tangles) + (plaques) |  |
| Fc1ccc(Nc2ccc3c(n2)[nH]c2ccncc23)cc1F [Example 27] |  | + (tangles) + (plaques) | + (tangles) + (plaques) |  |
| Cc1ccc(Nc2ccc3c4cnccc4n(C)c3n2)cc1OCCF [Example 34] |  | +++ (tangles) |  |  |
| Cn1c2ccncc2c2ccc(Nc3cccc(OCCOCCF)n3)nc21 [Example 56] |  | ++ (tangles) |  |  |
| CN1CCc2c(c3ccc(Nc4cccc(NCCF)n4)nc3n2C)C1=O [Example 81] | − |  |  |  |
| Fc1ccc(Nc2ccc3c(c2)[nH]c2ccncc23)cc1F [Example 37] |  | + (tangles) |  |  |

| SMILES | Direct staining of tau tangles/Aβ plaques on AD brain sections at 100 μM [1] | Direct staining of tau tangles on AD brain sections at 100 μM (100 μM compound) | Direct staining of Aβ plaques on AD brain sections at 100 μM (100 μM compound) | other results |
| --- | --- | --- | --- | --- |
| Cn1c2ccncc2c2ccc(Nc3csc(OCCF)n3)nc21 [Example 69] |  | ++ (tangles) |  |  |
| Cn1c2c(c3ccc(Nc4ccc(OCCF)cn4)nc31)C(=O)NCC2 [Example 207] | − |  |  |  |
| CN1CCc2c(c3ccc(Nc4ccn(CCF)n4)nc3n2C)C1=O [Example 190] | − |  |  |  |
| Cn1c2ccncc2c2ccc(Nc3ccc(OCCF)cc3)nc21 [Example 20] |  |  | + (plaques) |  |
| Cn1c2c(c3ccc(Nc4ccc(NCCF)cn4)nc31)C(=O)NCC2 [Example 82] |  | + (tangles) |  |  |
| Cn1c2ccncc2c2ccc(Nc3ccc(F)nc3)nc21 [Example 22] |  | + (tangles) + (plaques | + (tangles) + (plaques |  |
| Cn1c2ccncc2c2ccc(Nc3ccc(F)c(F)c3)cc21 [Example 39] |  | ++ (tangles) |  |  |
| CN1CCc2c(c3ccc(Nc4cccc(NCCF)c4)nc3n2C)C1=O [Example 84] | − |  |  |  |
| Cn1c2ccncc2c2ccc(Nc3cccc(C(F)F)c3)nc21 [Example 35] |  | ++ (tangles) ++ (plaques) | ++ (tangles) ++ (plaques) |  |
| CN1CCc2c(c3ccc(Nc4ccc(NCCF)cn4)nc3n2C)C1=O [Example 83] |  | + (tangles) |  |  |
| CN1CCc2c(c3ccc(Nc4cccc(F)n4)nc3n2C)C1=O [Example 185] |  |  | + (plaques) |  |
| Cn1c2ccncc2c2ccc(Nc3cncc(F)c3)nc21 [Example 29] |  | + (tangles) |  |  |
| Cn1c2c(c3ccc(Nc4cccc(F)n4)nc31)C(=O)NCC2 [Example 184] |  |  | + (plaques) |  |
| CN1CCc2c(c3ccc(Nc4ccc(F)c(OCCF)c4)nc3n2C)C1=O [Example 200] |  | + (tangles) + (plaques) | + (tangles) + (plaques) |  |
| Cn1c2ccncc2c2ccc(N3CCN(c4ccc(F)cc4)CC3)nc21 [Example 25] |  | + (tangles) + (plaques) | + (tangles) + (plaques) |  |
| Cn1c2ccncc2c2ccc(Nc3ccc(C#N)c(OCCF)c3)nc21 [Example 21] | − |  |  |  |
| OCCn1c2ccncc2c2ccc(Nc3ccc(F)c(F)c3)nc21 [Example 166] | − |  |  |  |
| CN1CCc2c(c3ccc(Nc4ccc(F)c([N+](=O)[O-])c4)nc3n2C)C1=O [Example 211] | − |  |  |  |
| OCCn1c2ccncc2c2ccc(Nc3cccc(OCCF)c3)nc21 [Example 165] | − |  |  |  |
| CN(C)c1cc(Nc2ccc3c4cnccc4n(C)c3n2)ccc1F [Example 41] | − |  |  |  |

| SMILES | Direct staining of tau tangles/Aβ plaques on AD brain sections at 100 μM [1] | Direct staining of tau tangles on AD brain sections at 100 μM (100 μM compound) | Direct staining of Aβ plaques on AD brain sections at 100 μM (100 μM compound) | other results |
| --- | --- | --- | --- | --- |
| CN1CCc2c(c3ccc(Nc4ccc(O)c(F)c4)nc3n2C)C1=O [Example 202] | − |  |  |  |
| Cn1c2c(c3ccc(Nc4ccc(N5CCOCC5)cc4)nc31)C(=O)NCC2 [Example 173] | − |  |  |  |
| COc1ccc(C2C(CCC(=O)NCCCCCC(=O)N(C)C)=C/C(=C/c3[nH]c(C)cc3C)N2B(F)F)cc1 (stereo not drawn) [Prep. Example 18, reference compound] |  |  |  | Direct staining of tau tangles/Aβ plaques on AD brain sections at 100 μM [2]: − |
| Cn1c2cccnc2c2ccc(Nc3cccc(OCCF)c3)nc21 [Example 163] |  | ++ (tangles) |  |  |
| COc1cc(Nc2ccc3c4cnccc4n(C)c3n2)ccn1 [Example 24] |  |  | + (plaques) |  |
| Cn1c2c(c3ccc(Nc4ccc(OCCF)cc4)nc31)C(=O)NCC2 [Example 177] | − |  |  |  |
| COc1cc(Nc2ccc3c4c(n(C)c3n2)CCNC4=O)ccc1F [Example 180] | − |  |  |  |
| Cn1c2ccncc2c2ccc(Nc3cncc(OCCCF)c3)nc21 [Example 97] |  | +++ (tangles) |  |  |
| Cn1c2ccncc2c2ccc(Nc3cccc(CCF)n3)nc21 [Example 149] |  | ++ (tangles) |  |  |
| COc1ccc(/C=C/c2ccc3nc(N4CCOCC4)sc3c2)cc1 [Compound B, reference compound] |  |  |  | Direct staining of Aβ plaques on AD brain section (100 μM, FIG. 2): Direct staining of Aβ plaques |
| FCCN(c1ccc(F)c(F)c1)c1ccc2c3cnccc3n(CCF)c2n1 [Example 164] |  |  | + (plaques) |  |
| CN1CCc2c(c3ccc(Nc4ccc(OCCF)c(F)c4)nc3n2C)C1=O [Example 198] | − |  |  |  |
| CN1CCc2c(c3ccc(Nc4ccc(F)c([N+](C)(C)C)c4)nc3n2C)C1=O [Example 212] | − |  |  |  |
| Cn1c2ccncc2c2ccc(Nc3cccc(N4CC(F)C4)c3)nc21 [Example 32] |  | + (tangles) + (plaques) | + (tangles) + (plaques) |  |
| Cn1c2c(c3ccc(Nc4ccc(F)c(F)c4)nc31)C(=O)N(CCF)CC2 [Example 183] |  |  | + (plaques) |  |
| CN(C)C(=O)CCc1ccc(/C=C2/C=CC(c3cccs3)N2)n1B(F)F (stereo not drawn) [Prep. Example 17, reference compound] |  |  |  | Direct staining of tau tangles/Aβ plaques on AD brain sections at 100 μM [2]: − |
| Cn1c2ccncc2c2ccc(Nc3ccc(F)c([N+](=O)[O-])c3)nc21 [Example 98] | − |  |  |  |
| Cc1ccc(Nc2ccc3c4cnccc4n(C)c3n2)cc1OC(F)F [Example 36] |  |  | + (plaques) |  |
| COc1ccc(Nc2ccc3c4cnccc4n(C)c3n2)cc1F [Example 30] |  | + (tangles) + (plaques) | + (tangles) + (plaques) |  |
| Cn1c2ccncc2c2ccc(Nc3ccc(F)cc3)nc21 [Example 18] | − |  |  |  |
